Data on 20 molecules can be found in patent publication US20260078120A1, “SUBSTITUTED PYRIDOPYRIMIDINONES” (MIRATI THERAPEUTICS, INC., priority 2022, published 2026).

What all share (format): cell-based
The test system of assay [1] is SKBR3 (PI3Kα wild type) cells. In words: CellTiter-Glo 2.0 luminescent cell viability assay, 72 hours, SKBR3 cells. The following applies: Homo sapiens, SK-BR-3, 72 h, SKBR3 (PI3Kα wild type) cells, CellTiter-Glo, approximately 72 hours; read-out: SKBR3 (WT) Viability IC50. In outline:
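Viability measured via CTG luminescence following roughly 72 hours of compound exposure at 37° C. Dosing used a 10 um starting concentration diluted 1:4 over 10 points; percent-of-vehicle data fitted with a variable-slope four-parameter model for IC50.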

Assay [2] relates to T47D (PI3Kα H1047R mutant) cells. In words: CellTiter-Glo 2.0 luminescent cell viability assay, 72 hours, T47D cells. Conditions: Homo sapiens, T47D, 72 h, T47D (PI3Kα H1047R mutant) cells, CellTiter-Glo, approximately 72 hours; read-out: T47D (H1047R mutant) Viability IC50. In outline:
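Cells seeded at 1000 per well overnight were dosed with a 10-concentration, 1:4 series starting at 10 µM and incubated ~72 h at 37° C. Viability was read by CellTiter-Glo 2.0 luminescence after 30 min at room temperature. IC50 came from four-parameter fits of percent vehicle control.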
(Cellular ATP, detected with luciferase, serves as a proxy for viable cell number.)

Assay [3] shares this test system. In words: Inhibition of pAKT formation, alphaLISA SureFire Ultra AKT 1/2/3 (pS473), T47D cells. Conditions: Homo sapiens, T47D, T47D (PI3Kα H1047R mutant) cells; inhibition of pAKT (pS473) formation; approximately one hour or 24 hours treatment; read-out: T47D pAKT (H1047R mutant) IC50. The gist of the method: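 T47D cells (12,000/well) in HBSS were dosed with compound at 10 concentrations (10.4 μM top, 1:4 dilutions) for about 1 h or 24 h at 37 °C, then lysed. pS473 AKT was read by alphaLISA. Signals were normalized to alpelisib and DMSO controls, and IC50 came from a four-parameter fit.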
(In general: Alpha assays give light when donor and acceptor beads are brought close together.)

Consider `Cc1cc([C@@H](C)Nc2ccccc2C(=O)O)c2nc(N3CCN(C(=O)C4CCCC4)CC3)c(C)c(=O)n2c1` [Example 10-84, (R)-2-((1-(2-(4-(cyclopentanecarbonyl)piperazin-1-yl)-3,7-dimethyl-4-oxo-4H-pyrido[1,2-a]pyrimidin-9-yl)ethyl)amino)benzoic acid], for which the IC50 (commonly the midpoint of a concentration-inhibition curve) is > 10000 nM in assay [1], 79 nM in assay [2] and 2.98 nM in assay [3].

In the case of `Cc1cc([C@@H](C)Nc2ccc(Cl)nc2C(=O)O)c2nc(NCC3CC3)c(C)c(=O)n2c1` [Example 10-85, (R)-6-chloro-3-((1-(2-((cyclopropylmethyl)amino)-3,7-dimethyl-4-oxo-4H-pyrido[1,2-a]pyrimidin-9-yl)ethyl)amino)picolinic acid], the values for the IC50 in assay [1], in assay [2] and in assay [3] were > 10000 nM, 79.5 nM and 2 nM, respectively.

Regarding `Cc1cc([C@@H](C)Nc2ccccc2C(=O)O)c2nc(N3CCN(c4ccc(F)cc4F)CC3)c(C#N)c(=O)n2c1` [Example 10-86, (R)-2-((1-(3-cyano-2-(4-(2,4-difluorophenyl)piperazin-1-yl)-7-methyl-4-oxo-4H-pyrido[1,2-a]pyrimidin-9-yl)ethyl)amino)benzoic acid], the IC50 is > 10000 nM in assay [1], 80 nM in assay [2] and 15.5 nM in assay [3].

With `Cc1cc([C@@H](C)Nc2ccccc2C(=O)O)c2nc(N3Cc4cc(F)c(F)cc4C3)c(C#N)c(=O)n2c1` [Example 10-87, (R)-2-((1-(3-cyano-2-(5,6-difluoroisoindolin-2-yl)-7-methyl-4-oxo-4H-pyrido[1,2-a]pyrimidin-9-yl)ethyl)amino)benzoic acid], the figures for the IC50 in assay [1], in assay [2] and in assay [3] were > 10000 nM, 80.2 nM and 2.23 nM, respectively.

With `Cc1cc([C@@H](C)Nc2ccccc2C(=O)O)c2nc(N3CC4CC3C(F)(F)C4)c(C#N)c(=O)n2c1` (stereo partly drawn) [Example 10-88, 2-(((1R)-1-(3-cyano-2-(6,6-difluoro-2-azabicyclo[2.2.1]heptan-2-yl)-7-methyl-4-oxo-4H-pyrido[1,2-a]pyrimidin-9-yl)ethyl)amino)benzoic acid], the IC50 in assay [1] was > 10000 nM; in assay [2], 80.3 nM; in assay [3] it was 3.77 nM.

For `Cc1cc([C@@H](C)Nc2ccccc2C(=O)O)c2nc(N3C4CCCC3CC4)c(C#N)c(=O)n2c1` [Example 10-89, 2-(((1R)-1-(2-(8-azabicyclo[3.2.1]octan-8-yl)-3-cyano-7-methyl-4-oxo-4H-pyrido[1,2-a]pyrimidin-9-yl)ethyl)amino)benzoic acid], the IC50 was > 10000 nM in assay [1], 81.7 nM in assay [2] and 8.14 nM in assay [3].

Turning to `Cc1cc([C@@H](C)Nc2ccccc2C(=O)O)c2nc(NC3CCC3)c(C#N)c(=O)n2c1` [Example 10-90, (R)-2-((1-(3-cyano-2-(cyclobutylamino)-7-methyl-4-oxo-4H-pyrido[1,2-a]pyrimidin-9-yl)ethyl)amino)benzoic acid], the IC50 was > 10000 nM in assay [1], 82.4 nM in assay [2] and 0.596 nM in assay [3].

Take `Cc1cc([C@@H](C)Nc2ccccc2C(=O)O)c2nc(N3CCN(CC(F)F)CC3)c(C)c(=O)n2c1` [Example 10-91, (R)-2-((1-(2-(4-(2,2-difluoroethyl)piperazin-1-yl)-3,7-dimethyl-4-oxo-4H-pyrido[1,2-a]pyrimidin-9-yl)ethyl)amino)benzoic acid]: the IC50 in assay [1] is > 10000 nM; in assay [2] it was 82.5 nM; in assay [3] it was 2.55 nM.

In the case of `Cc1cc([C@@H](C)Nc2ccccc2C(=O)O)c2nc(N3Cc4ccc(F)cc4C3)c(C#N)c(=O)n2c1` [Example 10-92, (R)-2-((1-(3-cyano-2-(5-fluoroisoindolin-2-yl)-7-methyl-4-oxo-4H-pyrido[1,2-a]pyrimidin-9-yl)ethyl)amino)benzoic acid], the IC50 was > 10000 nM in assay [1], 82.8 nM in assay [2] and 1.71 nM in assay [3].

In the case of `Cc1cc([C@@H](C)Nc2ccccc2C(=O)O)c2nc(N3CCN(c4ccc(F)cc4F)CC3)c(C)c(=O)n2c1` [Example 10-93, (R)-2-((1-(2-(4-(2,4-difluorophenyl)piperazin-1-yl)-3,7-dimethyl-4-oxo-4H-pyrido[1,2-a]pyrimidin-9-yl)ethyl)amino)benzoic acid], the values for the IC50 in assay [1], in assay [2] and in assay [3] were > 10000 nM, 83.2 nM and 4.3 nM, respectively.

As to `Cc1cc([C@@H](C)Nc2ccccc2C(=O)O)c2nc(N3CCN(c4ccc(C#N)cc4F)CC3)c(C#N)c(=O)n2c1` [Example 10-94, (R)-2-((1-(3-cyano-2-(4-(4-cyano-2-fluorophenyl)piperazin-1-yl)-7-methyl-4-oxo-4H-pyrido[1,2-a]pyrimidin-9-yl)ethyl)amino)benzoic acid], the IC50 in assay [1] is > 10000 nM; in assay [2], 83.6 nM; in assay [3], 2.02 nM.

Regarding `Cc1cc([C@@H](C)Nc2ccccc2C(=O)O)c2nc(N3CC4CCC3CC4)c(C#N)c(=O)n2c1` [Example 10-97, (R)-2-((1-(2-(2-azabicyclo[2.2.2]octan-2-yl)-3-cyano-7-methyl-4-oxo-4H-pyrido[1,2-a]pyrimidin-9-yl)ethyl)amino)benzoic acid], the IC50 is > 10000 nM in assay [1], 85.2 nM in assay [2] and 2.04 nM in assay [3].

Turning to `Cc1cc([C@@H](C)Nc2ccccc2C(=O)O)c2nc(N3CCN(c4ccccc4)CC3)c(C#N)c(=O)n2c1` [Example 10-98, (R)-2-((1-(3-cyano-7-methyl-4-oxo-2-(4-phenylpiperazin-1-yl)-4H-pyrido[1,2-a]pyrimidin-9-yl)ethyl)amino)benzoic acid], the figures for the IC50 in assay [1], in assay [2] and in assay [3] were > 10000 nM, 85.8 nM and 2.12 nM, respectively.

As for `Cc1cc([C@@H](C)Nc2ccccc2C(=O)O)c2nc(N3CC4C(C3)C4(F)F)c(C#N)c(=O)n2c1` (stereo partly drawn) [Example 10-100, 2-(((1R)-1-(3-cyano-2-(6,6-difluoro-3-azabicyclo[3.1.0]hexan-3-yl)-7-methyl-4-oxo-4H-pyrido[1,2-a]pyrimidin-9-yl)ethyl)amino)benzoic acid], the results for the IC50 in assay [1], in assay [2] and in assay [3] were > 10000 nM, 86.2 nM and 3.82 nM, respectively.

For the molecule `Cc1cc([C@@H](C)Nc2ccccc2C(=O)O)c2nc(N3CCN(c4ccc(C#N)cc4C)CC3)c(C#N)c(=O)n2c1` [Example 10-101, (R)-2-((1-(3-cyano-2-(4-(4-cyano-2-methylphenyl)piperazin-1-yl)-7-methyl-4-oxo-4H-pyrido[1,2-a]pyrimidin-9-yl)ethyl)amino)benzoic acid], the IC50 in assay [1] was > 10000 nM; in assay [2], 86.8 nM; in assay [3], 5.78 nM.

Turning to `Cc1cc([C@@H](C)Nc2ccccc2C(=O)O)c2nc(N3CC4CC(C3)C4(F)F)c(C)c(=O)n2c1` [Example 10-102, 2-(((1R)-1-(2-(6,6-difluoro-3-azabicyclo[3.1.1]heptan-3-yl)-3,7-dimethyl-4-oxo-4H-pyrido[1,2-a]pyrimidin-9-yl)ethyl)amino)benzoic acid], the figures for the IC50 in assay [1], in assay [2] and in assay [3] were > 10000 nM, 87 nM and 3.71 nM, respectively.

As to `Cc1cc([C@@H](C)Nc2ccccc2C(=O)O)c2nc(C3CCN(c4ccc(C#N)cc4)CC3)c(C#N)c(=O)n2c1` [Example 10-103, (R)-2-((1-(3-cyano-2-(1-(4-cyanophenyl)piperidin-4-yl)-7-methyl-4-oxo-4H-pyrido[1,2-a]pyrimidin-9-yl)ethyl)amino)benzoic acid], the IC50 was 8760 nM in assay [1], 87.2 nM in assay [2] and 2.05 nM in assay [3].

As to `Cc1cc([C@@H](C)Nc2ccccc2C(=O)O)c2nc(N3CCC4(CC4)C(F)(F)C3)c(C)c(=O)n2c1` [Example 10-107, (R)-2-((1-(2-(4,4-difluoro-6-azaspiro[2.5]octan-6-yl)-3,R7-dimethyl-4-oxo-4H-pyrido[1,2-a]pyrimidin-9-yl)ethyl)amino)benzoic acid], the IC50 in assay [1] was > 10000 nM; in assay [2], 92.5 nM; in assay [3], 6.72 nM.

For the molecule `Cc1cc([C@@H](C)Nc2ccccc2C(=O)O)c2nc(N3CCC4(CC4)C(F)(F)C3)c(C#N)c(=O)n2c1` [Example 10-108, (R)-2-((1-(3-cyano-2-(4,4-difluoro-6-azaspiro[2.5]octan-6-yl)-7-methyl-4-oxo-4H-pyrido[1,2-a]pyrimidin-9-yl)ethyl)amino)benzoic acid], the IC50 in assay [1] is > 10000 nM; in assay [2], 93.6 nM; in assay [3] it was 2.89 nM.

On to `Cc1cc([C@@H](C)Nc2ccccc2C(=O)O)c2nc(N3CCN(c4ccc(C#N)cc4)CC3C)c(C#N)c(=O)n2c1` (stereo partly drawn) [Example 10-109, 2-(((1R)-1-(3-cyano-2-(4-(4-cyanophenyl)-2-methylpiperazin-1-yl)-7-methyl-4-oxo-4H-pyrido[1,2-a]pyrimidin-9-yl)ethyl)amino)benzoic acid], for which the IC50 amounted to 8830 nM in assay [1], 93.7 nM in assay [2] and 2.67 nM in assay [3].
